This note sets out measurements from patent publication US11351125B2, “Poly(n-butyl cyanoacrylate) nanoparticle with dual modifications, preparation method and use thereof” (Xuanwu Hospital of Capital Medical University, priority 2016, dated 2022).

Data set [1] deals with 4T1 cells (mouse breast cancer cells). The experiment in a line: Inhibition of tumor cell proliferation in vitro, MTT. It is filed as cell-based. The settings on record: 0.0001 nmol/ml (as docetaxel), 24 h. The protocol: (2) Method: MTT method was used to determine the proliferation state of tumor cells. The particular steps were as followed: 4T1 cells (mouse breast cancer cells) in the logarithmic growth phase were digested and counted, and then seeded to a 96-well plate at a density of 5×10^4/well. […] After further incubation for 24 h and 48 h, respectively, the old medium was pipetted off, and a medium containing 0.5 mg/ml MTT was added to each well. After further incubation for 4 h, the medium was pipetted off, and washing with PBS was performed twice. DMSO (200 μl) was added to dissolve the formazan crystal, and shaking was performed in dark for 10 min; and then the OD value of each well at 490 nm was determined by ELISA instrument. The OD value of the cells incubated without the addition of drug was used as control (100%), and the cell viability for each drug groups were calculated, so as to study the proliferation state of tumor cells, wherein 5 parallel wells were set for each group.

A short description of data set [2]: Pharmacokinetics of docetaxel after intravenous administration in rats. In kind it is in vivo, Wistar rats. The following applies: rat, HPLC. The protocol: 6- to 8-week old male Wistar rats were subjected to jugular vein catheterization. […] The rats were administered with a docetaxel solution (a free drug) and docetaxel-loaded PBCA nanoparticles with dual modifications by PEG20000-cholesterol, respectively. […] After treatment, the content of docetaxel in the blood was determined by HPLC.

Data set [3] in a line: Brain tissue distribution of docetaxel in rats. In kind it is in vivo, Wistar rats. The settings on record: rat, tail vein injection, HPLC. The protocol: The rats were subjected to tail vein injection with a docetaxel solution (a free drug), and docetaxel-loaded PBCA nanoparticles with dual modifications by PEG20000-cholesterol, respectively. The rats were killed at different time points after administration, respectively, and the brain tissues were taken, washed with physiological saline and weighed. After treatment, the content of docetaxel in the brain tissue was determined by HPLC.

Data set [4] in a line: Brain tissue distribution of coumarin-6 in rats, Experiment 1 (time course). In kind it is in vivo, Wistar rats. The settings on record: rat, tail vein injection.
Experimental: (1) Method: 6- to 8-week old male Wistar rats were randomly divided into 3 groups, with 21 rats for each group. The rats were subjected to tail vein injection with an equimolar amount of a coumarin-6 solution (a free drug), coumarin-6-loaded nanoparticles with single modification by cholesterol and PBCA nanoparticles with dual modifications by PEG20000-cholesterol as prepared in Example 1, respectively. The rats were killed at different time points (15 min, 30 min, 1 h, 2 h, 4 h, 8 h, 12 h) after administration, brain tissues were taken, and the content of coumarin-6 in brain was determined.
For data set [5] the following is noted: rat. Here is the method:
(2) Method: 6- to 8-week old male Wistar rats were randomly divided into 3 groups, with 6 rats for each group. The rats were anesthetized by intraperitoneal injection of a pentobarbital solution (40 mg/kg), and jugular vein catheterization was performed. […] After treatment, the content of coumarin-6 in the blood was determined.

`CC(=O)O[C@@]12CO[C@@H]1C[C@H](O)[C@@]1(C)C(=O)[C@H](O)C3=C(C)[C@@H](OC(=O)[C@H](O)[C@@H](NC(=O)OC(C)(C)C)c4ccccc4)C[C@@](O)([C@@H](OC(=O)c4ccccc4)[C@H]21)C3(C)C` [docetaxel]: in data set [1], the “cell viability of the tumor cells” value was “no significant change”. Besides, the “sustained release in vivo (docetaxel detectable in blood)” value in data set [2] is recorded as < 2 h. The “docetaxel in the brain after intravenous administration” value in data set [3] is “could not be detected in the brain”.
As for coumarin-6 [Free drug], the “content of coumarin-6 in the brain tissue” value in data set [4] (15 min-12 h) is reported as ≤ 50 ng/g brain tissue. For the same compound, in data set [4] (8 h), the “coumarin-6 in the brain tissue 8 h after administration” value is “no coumarin-6 was detected”. Further, the “release time in vivo (coumarin-6 detectable in blood)” value in data set [5] is reported as ≤ 4 h. Also, in data set [5] (in vivo, iv), the “AUC0-t” value worked out at 15.8 ± 2.4 µg·min/mL, the “AUC0-∞” value amounted to 16.0 ± 2.3 µg·min/mL, the “C0” value worked out at 828.4 ± 139.0 ng/mL and the “CL” value is 6.4 ± 0.9 mL/min. Further, in data set [5] (in vivo, iv), the “Vd, λz” value was determined as 0.6 ± 0.3 L and the “t1/2, λz” value stood at 1 ± 0.4 h.
